Results on one molecule are retold here after the NIST ThermoML archive (doi:10.1016/j.fluid.2014.10.031).

Structures are written as SMILES. ± gives the expanded uncertainty stated by the source.

The conditions of data set [1]: Crystal; DTA.
Data set [2] in a line: Molar enthalpy of transition or fusion. The settings on record: Crystal; DSC.

As to `COc1cc(O)c2c(c1)oc(=O)c1c3cc(O)c(O)cc3oc21` [wedelolactone], the Normal melting temperature in data set [1] turned out to be 316.37 ± 24 °C. The “Molar enthalpy of transition or fusion” value in data set [2] was found to be 10.9 ± 0.478 kcal/mol.
